Source: ChEMBL document CHEMBL4732062, “Protease activated receptor 4 (PAR4) antagonists: Research progress on small molecules in the field of antiplatelet agents” (Eur J Med Chem, 2021)

Tests used:
[1] = Inhibition of thrombin-induced platelet aggregation in human platelet-rich plasma incubated for 1 min followed by thrombin addition; format: functional
[2] = Inhibition of PAF-induced platelet aggregation in human platelet-rich plasma incubated for 1 min followed by PAF addition; format: functional
[3] = Inhibition of collagen-induced platelet aggregation in human platelet-rich plasma incubated for 1 min followed by collagen addition; format: functional
[4] = Inhibition of arachidonic acid-induced platelet aggregation in human platelet-rich plasma incubated for 1 min followed by arachidonic acid addition; format: functional, cell-based
[5] = Antagonist activity at PAR4 in cynomolgus monkey whole blood assessed as inhibition of Ala-(L-4-F-Phe)-Pro-Gly-Trp-Leu-Val-Lys-Asn-Gly-induced platelet aggregation preincubated for 10 mins followed by Ala-(L-4-F-Phe)-Pro-Gly-Trp-Leu-Val-Lys-Asn-Gly stimulation; format: tissue-based; conditions: Macaca fascicularis
Cynomolgus monkey [6] = assay: Antithrombotic activity in cynomolgus monkey model of electrolytic carotid artery thrombosis assessed as reduction in thrombus weight at 0.5 mg/kg, PO administered once daily for 3 days measured at 2 hrs post last dose relative to control; format: functional, Macaca fascicularis; set-up: scale not given: the % may be the effect or the level left; conditions: time 3 day
Rhesus monkey [7] = assay: Antithrombotic activity in monkey model of electrolytic carotid artery thrombosis assessed as reduction in thrombus weight at 0.05 mg/kg administered as single dose measured at 2 hrs post dose; format: functional, Macaca mulatta; set-up: scale not given: the % may be the effect or the level left
[8] = target: T1, Proteinase-activated receptor 4 (Homo sapiens, UniProt Q96RI0); assay: Inhibition of human PAR4 expressed in HEK293 cells assessed as Ala-(L-4-F-Phe)-Pro-Gly-Trp-Leu-Val-Lys-Asn-Gly-induced inhibition of calcium mobilization preincubated for 30 mins followed by Ala-(L-4-F-Phe)-Pro-Gly-Trp-Leu-Val-Lys-Asn-Gly stimulation by FLIPR method; format: functional, cell-based
T1 sequence (Q96RI0 whole entry): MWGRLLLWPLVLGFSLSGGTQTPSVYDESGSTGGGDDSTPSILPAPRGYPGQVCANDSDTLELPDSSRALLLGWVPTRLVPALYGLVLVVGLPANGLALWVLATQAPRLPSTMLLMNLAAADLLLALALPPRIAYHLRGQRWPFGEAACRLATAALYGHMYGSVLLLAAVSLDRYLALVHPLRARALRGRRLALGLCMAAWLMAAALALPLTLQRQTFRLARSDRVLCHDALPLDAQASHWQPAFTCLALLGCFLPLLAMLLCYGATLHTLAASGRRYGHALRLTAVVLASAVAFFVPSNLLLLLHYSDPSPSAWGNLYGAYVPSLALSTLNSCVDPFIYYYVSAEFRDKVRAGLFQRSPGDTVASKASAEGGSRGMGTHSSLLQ

Rhesus monkey [9] = assay: Antithrombotic activity in monkey model of electrolytic carotid artery thrombosis assessed as reduction in thrombus weight at 0.1 mg/kg administered as single dose measured at 2 hrs post dose; format: functional, Macaca mulatta; set-up: scale not given: the % may be the effect or the level left
Rhesus monkey [10] = assay: Antithrombotic activity in monkey model of electrolytic carotid artery thrombosis assessed as reduction in thrombus weight at 0.5 mg/kg administered as single dose measured at 2 hrs post dose relative to control; format: functional, Macaca mulatta; set-up: scale not given: the % may be the effect or the level left
Rhesus monkey [11] = assay: Antithrombotic activity in monkey assessed as increase in mesenteric artery bleeding time at 0.05 to 0.5 mg/kg administered as single dose measured at 2 hrs post dose relative to control; format: functional, Macaca mulatta; conditions: dose 0.05-0.5 mg/kg
Rhesus monkey [12] = assay: Antithrombotic activity in monkey assessed as increase in mesenteric artery bleeding time at 0.1 mg/kg administered as single dose cotreated with aspirin measured at 2 hrs post dose relative to control; format: functional, Macaca mulatta
Rhesus monkey [13] = assay: Antithrombotic activity in monkey assessed as increase in mesenteric artery bleeding time at 0.5 mg/kg administered as single dose cotreated with aspirin measured at 2 hrs post dose relative to control; format: functional, Macaca mulatta
Cynomolgus monkey [14] = assay: Antithrombotic activity in cynomolgus monkey model of electrolytic carotid artery thrombosis assessed as reduction in thrombus weight at 4 mg/kg/hr, iv administered as single dose measured at 2 hrs post dose relative to control; format: functional, Macaca fascicularis; set-up: scale not given: the % may be the effect or the level left
Rhesus monkey [15] = assay: Antithrombotic activity in monkey assessed as increase in mesenteric artery bleeding time at 4 mg/kg/hr, iv administered as single dose measured at 2 hrs post dose relative to control; format: functional, Macaca mulatta
Rhesus monkey [16] = assay: Antithrombotic activity in monkey model of electrolytic carotid artery thrombosis assessed as reduction in thrombus weight at 0.1 mg/kg administered as single dose cotreated with aspirin measured at 2 hrs post dose relative to control; format: functional, Macaca mulatta; set-up: scale not given: the % may be the effect or the level left
Rhesus monkey [17] = assay: Antithrombotic activity in monkey model of electrolytic carotid artery thrombosis assessed as reduction in thrombus weight at 0.5 mg/kg administered as single dose cotreated with aspirin measured at 2 hrs post dose relative to control; format: functional, Macaca mulatta; set-up: scale not given: the % may be the effect or the level left
Cynomolgus monkey [18] = assay: Antithrombotic activity in cynomolgus monkey model of electrolytic carotid artery thrombosis assessed as increase in mesenteric bleeding time at 1 mg/kg, PO administered once daily for 3 days measured at 2 hrs post last dose; format: functional, Macaca fascicularis; conditions: time 3 day
Cynomolgus monkey [19] = assay: Antithrombotic activity in cynomolgus monkey model of electrolytic carotid artery thrombosis assessed as increase in provoked kidney bleeding time at 1 mg/kg, PO administered once daily for 3 days measured at 2 hrs post last dose; format: functional, Macaca fascicularis; conditions: time 3 day

Work on `COC(=O)c1ccc(-c2nn(-c3ccccc3)c3ccccc23)o1` yielded an IC50 [1] of over 270 µM and an IC50 [2] of over 270 µM.

`COC(=O)c1ccc(-c2nn(Cc3ccccc3)c3cc(C)ccc23)o1` showed an IC50 [1] of 126 µM, an IC50 [3] of 59.3 µM and an IC50 [2] of 76.3 µM. The IC50 [4] was 32.4 µM.

`CCOC(=O)c1ccc(-c2nn(Cc3ccccc3)c3ccccc23)cc1` gave an IC50 [4] of 185 µM.

`O=C(O)c1ccc(-c2nn(Cc3ccccc3)c3ccccc23)cc1` gave an IC50 [1] of over 270 µM, an IC50 [3] of 148 µM and an IC50 [2] of 235 µM. The IC50 [4] was 156 µM.

Work on `COC(=O)c1ccc(-c2nn(Cc3ccccc3)c3cc4c(cc23)OCO4)o1` yielded an IC50 [1] of over 270 µM, an IC50 [3] of 157 µM and an IC50 [2] of over 270 µM. It also gave an IC50 [4] of 92.3 µM.

In the case of `CCOC(=O)c1cccc(-c2nn(Cc3ccccc3)c3ccccc23)c1`, the IC50 [1] is reported as over 270 µM and the IC50 [2] is reported as over 270 µM.

`COc1cc(OCc2nc(N3CCOCC3)sc2C)c2cc(-c3cn4nc(OC)sc4n3)oc2c1` gave an IC50 [5] of 0.0021 µM and an Activity (Cynomolgus monkey [6]) of 50%.

Compound `COc1cc(OCc2nc(-c3ccc(C(=O)N(C)C)cc3)sc2C)c2cc(-c3cn4nc(OC)sc4n3)oc2c1` has an Activity (Rhesus monkey [7]) of 36%, an IC50 [8] of 0.00045 µM and an Activity (Rhesus monkey [9]) of 63%. The Activity (Rhesus monkey [10]) was 88%, the “fold change (FC)” value (Rhesus monkey [11]) was “<=1.2” and the “fold change (FC)” value (Rhesus monkey [12]) was 2.6. The “fold change (FC)” value (Rhesus monkey [13]) was 3.

Compound `COc1cnc2c(-c3nc4cc(F)c(O[C@@H]5CCC(C)(C)[C@@H]5OC(=O)Nc5ccnc(C)n5)cc4s3)cc(C)cc2n1` has an IC50 [8] of 0.0024 µM.

For `CC(=O)Oc1ccccc1C(=O)O` [ASPIRIN], the Activity (Cynomolgus monkey [14]) was 12%, the “fold change (FC)” value (Rhesus monkey [15]) was 2.2 and the Activity (Rhesus monkey [16]) was 50%. It also gave an Activity (Rhesus monkey [17]) of 89%.

With `COC(=O)[C@H](c1ccccc1Cl)N1CCc2sccc2C1` [CLOPIDOGREL] the “fold change (FC)” value (Cynomolgus monkey [18]) was over 10 and the “fold change (FC)” value (Cynomolgus monkey [19]) was over 10.
